pIC50: −log10 of the molar value.
System: 454973-116-R2-J3-PDC spheroids, viability, % test/control
Assay: Anticancer human tumor 454973-116-R2-J3-PDC patient-derived pancreatic carcinoma cell line growth inhibition [GQUAD]
Conditions: spheroids with HUVEC and MSC; for pIC50: curve of first compound; for viability, T/C: stronger effect = lower value
In short: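 Multi-cell-type spheroids of tumor cells with HUVEC and mesenchymal stem cells, treated with drug combinations. Concentrations descend in half-log steps from near clinical Cmax, or from 10 microM where Cmax is unknown; viability read-out.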

[1] = second compound 0.0316 µM, first compound 0.0316 µM
[2] = second compound 0.0316 µM, first compound 0.1 µM
[3] = second compound 0.0316 µM, first compound 0.316 µM
[4] = second compound 0.0316 µM, first compound 1 µM
[5] = second compound 0.0316 µM, first compound 3.16 µM
[6] = second compound 0.0316 µM, first compound 10 µM
[7] = second compound 0.1 µM, first compound 0.0316 µM
[8] = second compound 0.1 µM, first compound 0.1 µM
[9] = second compound 0.1 µM, first compound 0.316 µM
[10] = second compound 0.1 µM, first compound 1 µM
[11] = second compound 0.1 µM, first compound 3.16 µM
[12] = second compound 0.1 µM, first compound 10 µM
[13] = second compound 0.316 µM, first compound 0.0316 µM
[14] = second compound 0.316 µM, first compound 0.1 µM
[15] = second compound 0.316 µM, first compound 0.316 µM
[16] = second compound 0.316 µM, first compound 1 µM
[17] = second compound 0.316 µM, first compound 3.16 µM
[18] = second compound 0.316 µM, first compound 10 µM
[19] = second compound 1 µM, first compound 0.0316 µM
[20] = second compound 1 µM, first compound 0.1 µM
[21] = second compound 1 µM, first compound 0.316 µM
[22] = second compound 1 µM, first compound 1 µM
[23] = second compound 1 µM, first compound 3.16 µM
[24] = second compound 1 µM, first compound 10 µM
[25] = second compound 3.16 µM, first compound 0.0316 µM
[26] = second compound 3.16 µM, first compound 0.1 µM
[27] = second compound 3.16 µM, first compound 0.316 µM
[28] = second compound 3.16 µM, first compound 1 µM
[29] = second compound 3.16 µM, first compound 3.16 µM
[30] = second compound 3.16 µM, first compound 10 µM
[31] = second compound 10 µM, first compound 0.0316 µM
[32] = second compound 10 µM, first compound 0.1 µM
[33] = second compound 10 µM, first compound 0.316 µM
[34] = second compound 10 µM, first compound 1 µM
[35] = second compound 10 µM, first compound 3.16 µM
[36] = second compound 10 µM, first compound 10 µM
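Also: spheroids exposed to compounds for seven days.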
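For viability, T/C in this document: 100% = DMSO vehicle control viability.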

COc1cc(C2c3cc4c(cc3C(OC3OC5COC(C)OC5C(O)C3O)C3COC(=O)C23)OCO4)cc(OC)c1O (stereo not drawn) + Cc1[nH]c2ccc(F)cc2c1-c1nc2c3cccnc3c3ncccc3c2[nH]1 gave a pIC50 (second compound 0.0316 µM) of 5.95, a pIC50 (second compound 0.1 µM) of 5.89 and a pIC50 (second compound 0.316 µM) of 5.93. The pIC50 (second compound 1 µM) was 5.95, the pIC50 (second compound 3.16 µM) was 6.00 and the pIC50 (second compound 10 µM) was 5.93. The viability, T/C [1] was 112%, the viability, T/C [2] was 92.4% and the viability, T/C [3] was 99.7%. The viability, T/C [4] was 52%, the viability, T/C [5] was 22.7% and the viability, T/C [6] was 13.3%. It also gave a viability, T/C [7] of 103%, a viability, T/C [8] of 92.3% and a viability, T/C [9] of 88%. The viability, T/C [10] was 56.8%, the viability, T/C [11] was 25.6% and the viability, T/C [12] was 13.3%. The viability, T/C [13] was 106%, the viability, T/C [14] was 101% and the viability, T/C [15] was 83.7%. For the same compound, the viability, T/C [16] was 55.6%, the viability, T/C [17] was 23.9% and the viability, T/C [18] was 12.4%. The viability, T/C [19] was 93.7%, the viability, T/C [20] was 98.3% and the viability, T/C [21] was 86.2%. For the same compound, the viability, T/C [22] was 53.5%, the viability, T/C [23] was 21.2% and the viability, T/C [24] was 13.5%. For the same compound, the viability, T/C [25] was 115%, the viability, T/C [26] was 94.7% and the viability, T/C [27] was 98.7%. It also gave a viability, T/C [28] of 48.5%, a viability, T/C [29] of 22.9% and a viability, T/C [30] of 13.4%. For the same compound, the viability, T/C [31] was 97.1%, the viability, T/C [32] was 84.4% and the viability, T/C [33] was 80.7%. The viability, T/C [34] was 55.3%, the viability, T/C [35] was 23% and the viability, T/C [36] was 13.2%.
Compound CC(=O)O[C@H]1C(=O)[C@@]2(C)[C@H]([C@H](OC(=O)c3ccccc3)[C@]3(O)C[C@H](OC(=O)[C@H](O)[C@@H](NC(=O)c4ccccc4)c4ccccc4)C(C)=C1C3(C)C)[C@]1(OC(C)=O)CO[C@@H]1C[C@@H]2O + Cc1[nH]c2ccc(F)cc2c1-c1nc2c3cccnc3c3ncccc3c2[nH]1 has a pIC50 (second compound 0.0316 µM) greater than 7.50, a pIC50 (second compound 0.1 µM) greater than 7.50 and a pIC50 (second compound 0.316 µM) greater than 7.50. It also gave a pIC50 (second compound 1 µM) greater than 7.50, a pIC50 (second compound 3.16 µM) greater than 7.50 and a pIC50 (second compound 10 µM) greater than 7.50. It also gave a viability, T/C [1] of 15.2%, a viability, T/C [2] of 8.26% and a viability, T/C [3] of 7.28%. For the same compound, the viability, T/C [4] was 6.32%, the viability, T/C [5] was 7.13% and the viability, T/C [6] was 7.83%. It also gave a viability, T/C [7] of 14.5%, a viability, T/C [8] of 9.64% and a viability, T/C [9] of 7.87%. For the same compound, the viability, T/C [10] was 6.95%, the viability, T/C [11] was 7.87% and the viability, T/C [12] was 8.54%. It also gave a viability, T/C [13] of 14.6%, a viability, T/C [14] of 9.07% and a viability, T/C [15] of 5.61%. For the same compound, the viability, T/C [16] was 5.86%, the viability, T/C [17] was 5.85% and the viability, T/C [18] was 9.29%. The viability, T/C [19] was 12.3%, the viability, T/C [20] was 7.44% and the viability, T/C [21] was 6.58%. The viability, T/C [22] was 5.96%, the viability, T/C [23] was 7.37% and the viability, T/C [24] was 10.1%. The viability, T/C [25] was 11.1%, the viability, T/C [26] was 8.56% and the viability, T/C [27] was 7.65%. The viability, T/C [28] was 6.65%, the viability, T/C [29] was 6.16% and the viability, T/C [30] was 9.4%. It also gave a viability, T/C [31] of 12.5%, a viability, T/C [32] of 8.79% and a viability, T/C [33] of 7.16%. The viability, T/C [34] was 7.79%, the viability, T/C [35] was 7.84% and the viability, T/C [36] was 7.93%.
CC1COCCN1c1cc(C2(O)CC3CCC(C2)O3)c2cnn(-c3ccn[nH]3)c2n1 (stereo not drawn) + CN(C)c1ccc(Nc2c3ccc(NC(=O)CCN4CCCC4)cc3nc3cc(NC(=O)CCN4CCCC4)ccc23)cc1 was tested, and the pIC50 (second compound 0.0316 µM) was 6.75, the pIC50 (second compound 0.1 µM) was 6.76 and the pIC50 (second compound 0.316 µM) was 6.81. The pIC50 (second compound 1 µM) was 6.84, the pIC50 (second compound 3.16 µM) was 6.78 and the pIC50 (second compound 10 µM) was 7.00. The viability, T/C [1] was 106%, the viability, T/C [2] was 63.8% and the viability, T/C [3] was 35.4%. For the same compound, the viability, T/C [4] was 23.3%, the viability, T/C [5] was 21.4% and the viability, T/C [6] was 15%. It also gave a viability, T/C [7] of 98.6%, a viability, T/C [8] of 66.8% and a viability, T/C [9] of 31.2%. The viability, T/C [10] was 23.4%, the viability, T/C [11] was 22.4% and the viability, T/C [12] was 15%. It also gave a viability, T/C [13] of 99.5%, a viability, T/C [14] of 61.5% and a viability, T/C [15] of 30.6%. It also gave a viability, T/C [16] of 21%, a viability, T/C [17] of 23% and a viability, T/C [18] of 13.1%. It also gave a viability, T/C [19] of 95.3%, a viability, T/C [20] of 58.4% and a viability, T/C [21] of 33.1%. For the same compound, the viability, T/C [22] was 19.5%, the viability, T/C [23] was 20.1% and the viability, T/C [24] was 15.5%. For the same compound, the viability, T/C [25] was 84%, the viability, T/C [26] was 63.2% and the viability, T/C [27] was 33.6%. For the same compound, the viability, T/C [28] was 19.9%, the viability, T/C [29] was 22.4% and the viability, T/C [30] was 14.9%. The viability, T/C [31] was 65.7%, the viability, T/C [32] was 53% and the viability, T/C [33] was 30.4%. It also gave a viability, T/C [34] of 24.4%, a viability, T/C [35] of 23% and a viability, T/C [36] of 11.2%.
For CCCS(=O)(=O)Nc1ccc(F)c(C(=O)c2c[nH]c3ncc(-c4ccc(Cl)cc4)cc23)c1F + Cc1cnc(CNC(=O)c2c(=O)c3ccc(N4CCCN(C)CC4)nc3n3c2sc2ccccc23)cn1, the pIC50 (second compound 0.0316 µM) was 5.19, the pIC50 (second compound 0.1 µM) was 5.22 and the pIC50 (second compound 0.316 µM) was 5.29. It also gave a pIC50 (second compound 1 µM) of 5.37, a pIC50 (second compound 3.16 µM) of 5.29 and a pIC50 (second compound 10 µM) greater than 7.50. The viability, T/C [1] was 94.2%, the viability, T/C [2] was 105% and the viability, T/C [3] was 117%. For the same compound, the viability, T/C [4] was 106%, the viability, T/C [5] was 117% and the viability, T/C [6] was 14.1%. For the same compound, the viability, T/C [7] was 77.4%, the viability, T/C [8] was 88% and the viability, T/C [9] was 99%. The viability, T/C [10] was 94.6%, the viability, T/C [11] was 95.2% and the viability, T/C [12] was 17.3%. It also gave a viability, T/C [13] of 70.7%, a viability, T/C [14] of 73.4% and a viability, T/C [15] of 79.5%. It also gave a viability, T/C [16] of 96%, a viability, T/C [17] of 70.9% and a viability, T/C [18] of 20.2%. It also gave a viability, T/C [19] of 65.9%, a viability, T/C [20] of 71.9% and a viability, T/C [21] of 80.2%. It also gave a viability, T/C [22] of 66.4%, a viability, T/C [23] of 60.2% and a viability, T/C [24] of 21.9%. For the same compound, the viability, T/C [25] was 55.1%, the viability, T/C [26] was 62.2% and the viability, T/C [27] was 72.3%. It also gave a viability, T/C [28] of 67.9%, a viability, T/C [29] of 68.3% and a viability, T/C [30] of 29.2%. The viability, T/C [31] was 0.45%, the viability, T/C [32] was 18.1% and the viability, T/C [33] was 28.6%. The viability, T/C [34] was 35.6%, the viability, T/C [35] was 0.54% and the viability, T/C [36] was 0.2%.
